The test system of one assay is NB4R2. As to the kind of experiment: In vitro cytotoxicity, MTS assay. The class given is cell-based. As to conditions: 72 h, read-out: Inhibitory concentration (IC50) NB4R2. The method, then: (§1) Cladribine phosphoramidate derivatives were evaluated against six leukaemic cell lines (KG1, U937, K562, NB4R2, NB4 and HL-60) in vitro. Inhibitory concentration (IC50) at which 50% of the cells were no longer viable (calculated using MTS assay) was determined. Cells were treated with Cladribine and its 3′-phosphoramidate derivatives at concentrations between 100 μM and 0.02 μM by serial dilutions and incubated for 72 h at 37° C., 5% CO2 in a final volume of 90 μL. Twenty microliters of MTS reagent (Promega UK Ltd, Southampton, Hants) was added to the tumour cell cultures and reaction incubated for a further 4 h at 37° C., 5% CO2. The absorbance of the reaction after this time was read by spectrophotometry at 490 nm and the percentage of viable cells calculated relative to untreated control cells in the same assay.

The test system of a further assay is U937. In words: In vitro cytotoxicity, MTS assay. As to conditions: Homo sapiens, U-937, 72 h, read-out: Inhibitory concentration (IC50) U937. The assay is classed as cell-based. Here is the method:
as §1
(In general: Tetrazolium dyes change colour on reduction, which living cells bring about.)

A further assay has as its system NB4. In words: In vitro cytotoxicity, MTS assay. As to conditions: Homo sapiens, NB-4, 72 h, read-out: Inhibitory concentration (IC50) NB4. The assay is classed as cell-based. The method, then: as §1
The next assay deals with KG1. As to the kind of experiment: In vitro cytotoxicity, MTS assay. The assay is classed as cell-based. Conditions: Homo sapiens, KG-1, 72 h, read-out: Inhibitory concentration (IC50) KG1. Here is the method: as §1
A further assay has as its system K562. As to the kind of experiment: In vitro cytotoxicity, MTS assay. As to conditions: Homo sapiens, 72 h, read-out: Inhibitory concentration (IC50) K562. The assay is classed as cell-based. Here is the method: as §1
The test system of another assay is HL-60. In words: In vitro cytotoxicity, MTS assay. The assay is classed as cell-based. Conditions: Homo sapiens, 72 h, read-out: Inhibitory concentration (IC50) HL-60. The method, then: as §1
Assay [1] relates to MCF-7 Mammary epithelial adenocarcinoma. In words: In vitro viability assay, CellTiterGlo. Conditions: for EC50: Homo sapiens, MCF7, 72 h, read-out: EC50 (μM) Ab; for Top Inhibition (%): MCF-7, CellTiterGlo, 72 h. The class given is cell-based, human. The method, then:
(§2) In vitro viability assay was performed to assess the effects of compounds on cell viability in selected cell lines over 72 h using the CellTiterGlo (CTG, Promega-G7573) assay. The tests were performed in duplicates with treatment of compounds at 9 points, 3.16 folds titration in 96 well plates over ˜72 h. The compound starting concentrations were […]. Cell viability assay using CellTiterGlo in 96-well plate were performed. Compounds were dissolved to 40 mM with thawed 100% DMSO. Compounds were serially diluted at 3.16-fold in thawed DMSO, and warmed to 37° C. before being dissolved in media (2 μl+200 μl). After compounds were dissolved in media, media containing compounds were warmed to 37° C. in incubator and then compounds in media were added to cell plates (50 μl+50 μl) in duplicates. The compounds' final concentrations were from 198 μM to 19.9 nM. Solubility of all compounds was checked and recorded again, then the plates were transferred to CO2 tissue culture incubator immediately and incubated for 3 days. DMSO final concentration is 0.5%.

Assay [2] concerns RL Non-Hodgkin's lymphoma. As to the kind of experiment: In vitro viability assay, CellTiterGlo. The class given is cell-based. Conditions: 72 h; for Top Inhibition (%): CellTiterGlo; for EC50: Homo sapiens, read-out: EC50 (μM) Ab. Here is the method: as §2
On the technique in general: Cellular ATP, detected with luciferase, serves as a proxy for viable cell number.

The test system of assay [3] is HEL92.1.7 Erythroleukaemia. In words: In vitro viability assay, CellTiterGlo. The assay is classed as cell-based. As to conditions: for Top Inhibition (%): HEL92.1.7, CellTiterGlo, 72 h; for EC50: Homo sapiens, HEL 92.1.7, 72 h, read-out: EC50 (μM) Ab. Here is the method:
as §2

For assay [4], the system named is KG-1 Acute myelogenous leukaemia. In words: In vitro viability assay, CellTiterGlo. The class given is cell-based. As to conditions: for EC50: Homo sapiens, KG-1, 72 h, read-out: EC50 (μM) Ab; for Top Inhibition (%): KG-1, CellTiterGlo, 72 h. Here is the method: as §2
Assay [5] relates to HL-60 Promyelocytic leukaemia. In words: In vitro viability assay, CellTiterGlo. As to conditions: for Top Inhibition (%): HL-60, CellTiterGlo, 72 h; for EC50: Homo sapiens, HL-60, 72 h, read-out: EC50 (μM) Ab. The assay is classed as cell-based. Here is the method: as §2
Assay [6] has as its system Z-138 Mantle cell lymphoma. In words: In vitro viability assay, CellTiterGlo. Conditions: for EC50: Homo sapiens, Z-138, 72 h, read-out: EC50 (μM) Ab; for Top Inhibition (%): Z-138, CellTiterGlo, 72 h. The class given is cell-based. The method, then:
as §2

By EC50 is commonly meant the concentration that produces a half-maximal response.

The structures appear in SMILES notation. Where only a bound is given, the exact number is not on record here.

Turning to `C[C@@H](NP(=O)(Oc1ccccc1)OC1C[C@H](n2cnc3c(N)nc(Cl)nc32)O[C@@H]1CO)C(=O)OCc1ccccc1` (stereo partly drawn) [Compound 3, 2-Chloro-2 ‘-deoxyadenosine-3’-[phenyl-(benzoxy-D-alaninyl)]-phosphate], the IC50 in the assay on NB4R2 is above 10 µM; in the assay on U937, 7.52 µM; in the assay on NB4 it was 7.82 µM; in the assay with KG1, above 10 µM; in the assay with K562, above 10 µM; in the assay with HL-60 it was above 10 µM.

`C[C@H](NP(=O)(Oc1ccccc1)OC1C[C@H](n2cnc3c(N)nc(Cl)nc32)O[C@@H]1CO)C(=O)O[C@@H](C)c1ccccc1` (stereo partly shown) [Compound 17]: the results for the IC50 in the assay on NB4 and in the assay with HL-60 were 5.5 µM and 3.2 µM, respectively.

As for `CC(C)[C@H](NP(=O)(Oc1ccccc1)OC1C[C@H](n2cnc3c(N)nc(Cl)nc32)O[C@@H]1CO)C(=O)OCc1ccccc1` (stereo partly drawn) [Compound 14, 2-Chloro-2′-deoxyadenosine-3′-[phenyl-(benzoxy-L-valinyl)] phosphate], the IC50 is 2 µM in the assay on NB4R2; 0.4 µM in the assay with U937; 0.8 µM with NB4; 2 µM in the assay with KG1; above 10 µM in the assay on K562; 3 µM in the assay on HL-60.

Take `Nc1nc(Cl)nc2c1ncn2[C@H]1CC(OP(=O)(NCC(=O)OCc2ccccc2)Oc2ccccc2)[C@@H](CO)O1` (stereo partly shown) [Compound 4, 2-Chloro-2 ‘-deoxyadenosine-3’-[phenyl-(benzoxy-glycinyl)]-phosphate]: the IC50 was 5.56 µM in the assay with NB4R2; above 10 µM with U937; 8.04 µM in the assay with NB4; above 10 µM in the assay on KG1; above 10 µM in the assay with K562; above 10 µM in the assay on HL-60.

Regarding `CCOC(=O)[C@H](C)NP(=O)(Oc1ccccc1)OC1C[C@H](n2cnc3c(N)nc(Cl)nc32)O[C@@H]1CO` (stereo partly drawn) [Compound 1, 2-Chloro-2 ‘-deoxyadenosine-3’-[phenyl-(ethoxy-L-alaninyl)]-phosphate], the IC50 with NB4R2 is 2.52 µM; in the assay on U937, 3.06 µM; in the assay on NB4 it was 0.74 µM; in the assay on KG1, 1.76 µM; in the assay with K562, above 10 µM; in the assay with HL-60, 2.68 µM.

Turning to `C[C@H](NP(=O)(Oc1cccc2ccccc12)OC1C[C@H](n2cnc3c(N)nc(Cl)nc32)O[C@@H]1CO)C(=O)OC1CCCCC1` (stereo partly drawn) [Compound 8, 2-Chloro-2 ‘-deoxyadenosine-3’-[1-naphthyl-(cyclohexoxy-L-alaninyl)] phosphate], the EC50 in assay [1] was found to be 7.97 µM; in [2], 0.85 µM; in assay [3], 0.18 µM; in [4], 2.75 µM; in assay [5] it was 0.46 µM; in assay [6], 3.5 µM. In addition, the “Top Inhibition (%)” value in [1] is 101%; in assay [2], 98.1%; in assay [3], 98.3%; in [4], 98.4%; in assay [5], 96%; in assay [6] it was 100%.

For the molecule `Nc1nc(Cl)nc2c1ncn2[C@H]1CC(OP(=O)(N[C@@H](Cc2ccccc2)C(=O)OCc2ccccc2)Oc2cccc3ccccc23)[C@@H](CO)O1` (stereo partly drawn) [Compound 13, 2-Chloro-2′-deoxyadenosine-3′-[1-naphthyl(benzoxy-L-phenylaninyl)] phosphate], the IC50 came out at 0.8 µM in the assay with NB4R2; 1 µM with U937; 0.3 µM in the assay with NB4; 1 µM in the assay with KG1; 7 µM in the assay with K562; 1 µM in the assay with HL-60.

`CC(C)OC(=O)[C@H](C)NP(=O)(Oc1ccccc1)OC1C[C@H](n2cnc3c(N)nc(Cl)nc32)O[C@@H]1CO` (stereo partly drawn) [Compound 15, 2-Chloro-2′-deoxyadenosine-3′-[phenylaso-propoxy-L-alaninyl)] phosphate]: the IC50 with NB4R2 was 9 µM; in the assay with U937, 0.4 µM; in the assay with NB4, 6 µM; in the assay with KG1 it was 5 µM; in the assay with K562 it was above 10 µM; in the assay with HL-60, 2 µM.

Take `CCC(C)OC(=O)[C@H](C)NP(=O)(Oc1ccccc1)OC1C[C@H](n2cnc3c(N)nc(Cl)nc32)O[C@@H]1CO` (stereo partly drawn) [Compound 16, 2-Chloro-2′-deoxyadenosine-3′-[phenyl-(2-butoxy-L-alaninyl)] phosphate]: the IC50 is above 10 µM with NB4R2; 2 µM in the assay with U937; 9 µM in the assay with NB4; 7 µM in the assay with KG1; above 10 µM with K562; 8 µM with HL-60.

As for `C[C@H](NP(=O)(Oc1ccccc1)OC1C[C@H](n2cnc3c(N)nc(Cl)nc32)O[C@@H]1CO)C(=O)OC(C)(C)C` (stereo partly drawn) [Compound 2, 2-Chloro-2 ‘-deoxyadenosine-3’-[phenyl-(tert-butoxy-L-alaninyl)]-phosphate], the IC50 in the assay with NB4R2 is above 10 µM; with U937 it was 6 µM; with NB4, above 10 µM; with KG1 it was 2 µM; in the assay on K562, above 10 µM; in the assay on HL-60, above 10 µM.

On to `C[C@H](NP(=O)(Oc1ccccc1)OC1C[C@H](n2cnc3c(N)nc(Cl)nc32)O[C@@H]1CO)C(=O)OC1CCCCC1` (stereo partly drawn) [Compound 9, 2-Chloro-2′-deoxyadenosine-3′-[phenyl-(cyclohexoxy-L-alaninyl)] phosphate], for which the EC50 stood at 21 µM in assay [1]; 0.14 µM in [2]; 0.044 µM in [3]; 0.8 µM in assay [4]; 0.13 µM in assay [5]; 0.051 µM in [6]. Besides, the “Top Inhibition (%)” value in assay [1] worked out at 100%; in [2], 89.9%; in assay [3], 97.2%; in assay [4] it was 96.9%; in [5], 87.7%; in assay [6] it was 99.9%.

Regarding `CCOC(=O)C(C)(C)NP(=O)(Oc1ccccc1)OC1C[C@H](n2cnc3c(N)nc(Cl)nc32)O[C@@H]1CO` (stereo partly shown) [Compound 11, 2-Chloro-2 ‘-deoxyadenosine-3’-[phenyl-(ethoxy-2,2-dimethylglycinyl)]-phosphate], the IC50 in the assay with NB4 is above 10 µM; in the assay on HL-60, 0.3 µM.

For `CC(C)C[C@H](NP(=O)(Oc1ccccc1)OC1C[C@H](n2cnc3c(N)nc(Cl)nc32)O[C@@H]1CO)C(=O)OCc1ccccc1` (stereo partly drawn) [Compound 5, 2-Chloro-2 ‘-deoxyadenosine-3’-[phenyl-(benzoxy-L-leucinyl)]-phosphate], the IC50 was 1.57 µM in the assay on NB4R2; above 10 µM in the assay on U937; 2.56 µM with NB4; 5.04 µM with KG1; above 10 µM in the assay with K562; 4.45 µM with HL-60.

Turning to `Nc1nc(Cl)nc2c1ncn2[C@H]1CC(OP(=O)(N[C@@H](Cc2ccccc2)C(=O)OCc2ccccc2)Oc2ccccc2)[C@@H](CO)O1` (stereo partly drawn) [Compound 12, 2-Chloro-2 ‘-deoxyadenosine-3’-[phenyl-(benzoxy-L-phenylalaninyl)] phosphate], the IC50 with NB4R2 came out at 2 µM; in the assay with U937 it was 2 µM; with NB4, 1 µM; in the assay with KG1, 4 µM; with K562, 10 µM; with HL-60, 2 µM.

The record behind these values is US10906929B2, “Phosphoramidate nucleoside derivatives as anticancer agents” (NuCana plc, priority 2016, dated 2021).
